According to a compilation of properties of binary mixtures (doi:10.1016/j.jct.2010.07.014):

Test: xn = mol fraction of the nth substance listed
Details: 101 kPa

CCCC[n+]1ccccc1.F[B-](F)(F)F + CCO
speed of sound [m/s]
Details | 303.15 K | 313.15 K | 323.15 K
x2 = 0.072 | 1575.2 | – | 1529.8
x2 = 0.147 | 1555.4 | 1532.9 | 1511.8
x2 = 0.2229 | – | 1520.8 | –
x2 = 0.3295 | 1514.6 | 1492.5 | 1470.4
x2 = 0.4136 | 1488.6 | 1466.5 | –
x2 = 0.5006 | 1454.7 | 1433.1 | 1409.4
x2 = 0.5789 | – | – | 1374.8
x2 = 0.7074 | 1345.6 | 1329.7 | 1306.2
x2 = 0.8052 | – | 1256.1 | 1233.5
x2 = 0.8999 | 1199.4 | 1175.8 | –
x2 = 0.948 | 1163.7 | 1135.3 | 1106.3

CCCC[n+]1ccccc1.F[B-](F)(F)F + CO
Details | speed of sound [m/s]
293.15 K, x2 = 0.1574 | 1589.5
293.15 K, x2 = 0.2119 | 1580.3
293.15 K, x2 = 0.3113 | 1561.6
293.15 K, x2 = 0.3856 | 1545.2
293.15 K, x2 = 0.6109 | 1473.1
293.15 K, x2 = 0.7044 | 1424.8
293.15 K, x2 = 0.8043 | 1353.2
293.15 K, x2 = 0.9023 | 1256.7
303.15 K, x2 = 0.1058 | 1582.7
303.15 K, x2 = 0.2119 | 1558.3
303.15 K, x2 = 0.3856 | 1522.7
303.15 K, x2 = 0.5052 | 1491.6
303.15 K, x2 = 0.6109 | 1450.8
303.15 K, x2 = 0.8043 | 1330.3
303.15 K, x2 = 0.9023 | 1234.7
313.15 K, x2 = 0.1058 | 1552.6
313.15 K, x2 = 0.1574 | 1544.6
313.15 K, x2 = 0.2119 | 1535.7
313.15 K, x2 = 0.3113 | 1516.7
313.15 K, x2 = 0.3856 | 1500.1
313.15 K, x2 = 0.6109 | 1427.1
313.15 K, x2 = 0.7044 | 1378.5
313.15 K, x2 = 0.9512 | 1140.1
323.15 K, x2 = 0.211 | 1512.7
323.15 K, x2 = 0.3066 | 1494.7
323.15 K, x2 = 0.4111 | 1470.5
323.15 K, x2 = 0.5203 | 1440.9
323.15 K, x2 = 0.703 | 1363
323.15 K, x2 = 0.8081 | 1281.6
323.15 K, x2 = 0.9038 | 1172.9
